This is an account of results in patent US11137397B2, “Peptides for blocking IL1RAP protein-protein interaction and uses thereof for treatment of disease” (Albert Einstein College of Medicine, priority 2014, dated 2021).

No end group written: not given here.

For data set [1], the system named is healthy bone marrow mononuclear cells (BMMNC). Nature of the data set: Clonogenic assay in methylcellulose, healthy BMMNC. Particulars: 300 μM for 4 hours, colonies scored at 14 days. It counts as cell-based. As for the experimental part: FIG. 6. […] BMMNC were exposed to scrambled peptide (scrambled), or IL1RAP peptides (P1 and P2) for 4 hours at 300 μM concentrations or left untreated (UT) and evaluated for colony formation capacity in methylcellulose. Colonies were scored at 14 days. The results are expressed as total number of colonies/5×10^4 plated cells. Error bars represent the standard deviation of two replicates.
Cell viability was assessed at the indicated time points by trypan blue staining and manual cell counts. Viable cells were plated in methylcellulose (StemCell technologies H4434, or R&D HSC002SF) at 1000 cells/ml in 6-well plates for cell lines and at 5×10^4 cells/ml for bone marrow mononuclear cells (BMMNC). Cells were incubated at 37° C. and 5% CO2. Colonies were scored after 7 days or 14 days in culture for cell lines or primary cells, respectively.

For data set [2], the system named is THP-1 cells. Kind of data set: Flow cytometric determination of cell death (Annexin V/DAPI). To be noted: 300 μM. In kind it is cell-based, human. On the procedure: FIG. 8. IL1RAP blockade causes cell death of IL1RAP dependent human leukemia cells. THP1 cells were exposed to 300 μM IL1RAP peptides (P1 and P2), scrambled control peptide (scrambled), peptide buffer (vehicle) or left untreated (UT) and evaluated for cell viability determined by Annexin V/DAPI staining and flow cytometry. The results are expressed as percentage of total cells.
In order to determine viability after peptide treatment, 1×10^4 THP-1 cells were washed with PBS and mixed with pre-diluted PE-conjugated Annexin V (BD Pharmigen) and DAPI. Cells were stained at room temperature for 15 minutes and suspended in 0.2 ml of Annexin V-FLUOS incubation buffer (Roche) for analysis.

Data set [3] relates to THP-1 cells. Kind of data set: Cell morphology (cytospin, Diff-Quick staining). In kind it is cell-based, human. Particulars: THP-1 cells that remained viable after 24 hours of treatment. On the procedure:
FIG. 9. IL1RAP blockade changes in cell morphology of IL1RAP dependent human leukemia cells. THP1 cells were exposed to 100 μM IL1RAP peptide P2, scrambled control peptide (scrambled), peptide buffer (vehicle) or left untreated and evaluated for cell morphology.
1×10^4 THP-1 cells after treatment with peptides were rinsed with PBS and 0.1 ml of cell suspension was cytospun onto polylysine coated slides at minimum speed for 4 minutes in a cytocentrifuge (StatSpin Cytofuge). Slides were stained according to manufacturer's protocol using the Romanowsky staining Diff-Quick (IMEB) kit. Cells were imaged with an Axiovert 200M microscope (Zeiss) and Olympus SZ61 microscope.

For the substance “AGDKDRLIVMENKPTHGID [Peptide P2, AGDKDRLIVMENKPTHGID]”, in data set [1], the “inhibitory effects on healthy control bone marrow mononuclear cells (clonogenic potential)” value is recorded as “no inhibitory effects”. Besides, the “overall reduction in viability in comparison to the scrambled control peptide” value with THP-1 cells [2] turned out to be 28%.
“AGDKDRLIVMENKPTRPV [Peptide P1, AGDKDRLIVMENKPTRPV]”: the “inhibitory effects on healthy control bone marrow mononuclear cells (clonogenic potential)” value in data set [1] is “no inhibitory effects”. Further, in the data set on THP-1 cells [2], the “overall reduction in viability in comparison to the scrambled control peptide” value was found to be 14%.
With “LKDMPGRPNERDKVAlTV (LKDMPGRPNERDKVAITV; not fully specified) [scrambled peptide]”, the cell morphology result with THP-1 cells [3] is “maintained a blast-like morphology”.
